This note sets out measurements from patent publication EP0802181B1, “Retinoids” (F. HOFFMANN-LA ROCHE AG, priority 1996, dated 1997).

Like-named read-outs stand apart in the source and are kept apart here.

For series [1], the system named is limb bud cell culture. The series is described as follows: limb bud cell culture assay (evaluation of teratogenic potential). The class given is cell-based. An excerpt:
Teratogene Effekte gehören zu den schwerschwiegensten Nebenwirkungen aller Retinoide.

Series [2] concerns Sebumdrüsen. Nature of the series: Minipig model (in vivo), histology of skin biopsies. An excerpt: Die Wirksamkeit der erfindungsgemässen Verbindungen bei der Behandlung der Akne kann mit den nachstehend beschriebenen Versuchsanordnungen gezeigt werden: • 1. Hemmung der Proliferation menschlicher Sebocyten (in vitro) Literatur: Methods in Enzymology 190, 334 (1990), T. Doran and S. Shapiro • 2. Aenderung der Differenzierung von Schweinesebocyten (invitro), Induktion von Keratin 7. Kulturen von Schweinesebocyten werden aus isolierten Sebumdrüsen erwachsener Minischweine hergestellt. Sie reagieren auf die Behandlung mit Retinoiden mit der Expression von Keratin 7, was auch der in vivo Situation entspricht. Keratin 7 wird als ein Marker für eine modifizierte Differenzierung der Sebocyten angesehen. Der entstehende Phenotyp kann kein Sebum mehr produzieren. Die Messung der Keratin 7-Induktion basiert auf einem ELISA assay unter Verwendung eines Maus-monoklonalen Antikeratin 7-Antikörpers. • 3. Minipig-Modell (in vivo) Die Haut der Minischweine hat eine ähnliche anatomische Struktur wie menschliche Haut. Im besonderen ähneln die Sebumdrüsen denen menschlicher Aknepatienten. Unter Retinoid-Behandlung zeigen sie die gleichen histologischen Veränderungen wie beim Menschen. Die Schweine erhalten täglich eine orale Dosis der Versuchssubstanz während 8 Wochen. Alle 2 Wochen wird eine Biopsie genommen und histologisch untersucht.

[3] abbreviates: limb bud cell culture assay, IC50 correlates with in vivo teratogenicity, read-out: IC50.

On to `CC1=C(C#C/C(C)=C/C=C/C(C)=C\C(=O)O)C(C)(C)C[C@H](O)C1` [Beispiel 3, (2Z,4E,6E)-(R)-9-(4-Hydroxy-2,6,6-trimethyl-cyclohex-1-enyl)-3,7-dimethyl-nona-2,4,6-trien-8-yn-säure], for which the IC50 in series [1] (setting [3]) is above 1000 nM.
Regarding `CC1=C(/C=C/C(C)=C/C=C/C(C)=C/C(=O)O)C(C)(C)CCC1` [Tretinoin, reference compound], the IC50 in series [1] turned out to be 80 nM.
As to `CC1=C(/C=C/C(C)=C/C=C/C(C)=C\C(=O)O)C(C)(C)C[C@H](O)C1` [Beispiel 1, (2Z,4E,6E,8E)-(R)-9-(4-Hydroxy-2,6,6-trimethyl-cyclohex-1-enyl)-3,7-dimethyl-nona-2,4,6,8-tetraensäure], the IC50 in series [1] (setting [3]) was above 1000 nM. For the same compound, the “Verkleinerung der Sebumdrüsen” value in series [2] (daily oral dose 10 mg/kg, after 3-4 weeks) is reported as “deutliche Verkleinerung der Sebumdrüsen”. The “Sebumdrüsen nach 8 Wochen” value in series [2] (daily oral dose 10 mg/kg, after 8 weeks) was “weitgehend verschwunden”. For the same compound, the “Nebenwirkungen auf Haut und Schleimhäute” value in series [2] (oral dose 50 mg/kg, in contrast to Isotretinoin) is listed as “keinerlei Nebenwirkungen auf Haut und Schleimhäute”.
As for `CC1=C(/C=C/C(C)=C/C=C/C(C)=C\C(=O)O)C(C)(C)C(=O)C=C1` [Beispiel 4, (2Z,4E,6E,8E)-9-(5-Oxo-2,6,6-trimethyl-cyclohexa-1,3-dienyl)-3,7-dimethyl-nona-2,4,6,8-tetraensäure], the IC50 in series [1] (setting [3]) was above 1000 nM.
For the compound `CC1=C(/C=C/C(C)=C/C=C/C(C)=C\C(=O)O)C(C)(C)CCC1` [Isotretinoin, reference compound], the IC50 in series [1] is 200 nM.

For orientation: IC50 means the concentration at which inhibition is half-maximal.
